Assay results published in ChEMBL document CHEMBL5291721, “A preclinical secondary pharmacology resource illuminates target-adverse drug reaction associations of marketed drugs” (Nat Commun, 2023).
Where a SMILES comes first, the peptide text is derived from it. [ ]: non-standard residue; d: D form. pGlu = O=C1CC[C@@H](C(=O)O)N1; Thz = O=C(O)[C@@H]1CSCN1

Legend:
D(3) dopamine receptor = D(3) dopamine receptor (Homo sapiens, UniProt P35462)
[1] = target: T1, 5-hydroxytryptamine receptor 1A (Homo sapiens, UniProt P08908); assay type: functional, cell-based
T1 sequence (P08908 whole entry): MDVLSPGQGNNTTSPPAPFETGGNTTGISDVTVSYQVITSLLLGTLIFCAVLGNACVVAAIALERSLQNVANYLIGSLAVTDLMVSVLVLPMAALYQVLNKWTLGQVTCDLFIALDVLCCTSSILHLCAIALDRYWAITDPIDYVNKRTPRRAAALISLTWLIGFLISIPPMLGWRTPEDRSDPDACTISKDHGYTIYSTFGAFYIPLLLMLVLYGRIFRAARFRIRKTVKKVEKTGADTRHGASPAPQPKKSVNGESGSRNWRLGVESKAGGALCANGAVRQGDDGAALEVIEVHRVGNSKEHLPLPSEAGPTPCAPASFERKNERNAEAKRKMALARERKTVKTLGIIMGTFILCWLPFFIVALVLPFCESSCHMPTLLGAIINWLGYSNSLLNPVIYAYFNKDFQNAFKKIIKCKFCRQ

[2] = target: Gamma-aminobutyric acid receptor subunit alpha-1 (Rattus norvegicus, UniProt P62813)
[3] = target: Kappa-type opioid receptor (Homo sapiens, UniProt P41145)
[4] = target: T2, Equilibrative nucleoside transporter 1 (Homo sapiens, UniProt Q99808)
T2 sequence (Q99808 whole entry): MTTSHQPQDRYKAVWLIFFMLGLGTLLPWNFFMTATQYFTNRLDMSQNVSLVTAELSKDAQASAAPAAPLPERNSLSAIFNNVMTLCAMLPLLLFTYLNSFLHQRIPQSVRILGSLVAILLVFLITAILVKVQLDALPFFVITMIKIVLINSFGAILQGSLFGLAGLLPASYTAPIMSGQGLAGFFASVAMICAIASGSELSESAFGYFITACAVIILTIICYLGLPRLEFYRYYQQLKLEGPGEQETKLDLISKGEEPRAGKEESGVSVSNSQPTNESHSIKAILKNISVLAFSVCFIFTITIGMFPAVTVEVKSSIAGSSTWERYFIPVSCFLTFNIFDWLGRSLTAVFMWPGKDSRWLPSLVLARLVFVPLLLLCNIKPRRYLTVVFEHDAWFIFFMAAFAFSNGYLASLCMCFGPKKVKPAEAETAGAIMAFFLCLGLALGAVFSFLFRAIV

[5] = target: T3, 5-hydroxytryptamine receptor 3A (Homo sapiens, UniProt P46098); assay type: functional
T3 sequence (P46098 whole entry): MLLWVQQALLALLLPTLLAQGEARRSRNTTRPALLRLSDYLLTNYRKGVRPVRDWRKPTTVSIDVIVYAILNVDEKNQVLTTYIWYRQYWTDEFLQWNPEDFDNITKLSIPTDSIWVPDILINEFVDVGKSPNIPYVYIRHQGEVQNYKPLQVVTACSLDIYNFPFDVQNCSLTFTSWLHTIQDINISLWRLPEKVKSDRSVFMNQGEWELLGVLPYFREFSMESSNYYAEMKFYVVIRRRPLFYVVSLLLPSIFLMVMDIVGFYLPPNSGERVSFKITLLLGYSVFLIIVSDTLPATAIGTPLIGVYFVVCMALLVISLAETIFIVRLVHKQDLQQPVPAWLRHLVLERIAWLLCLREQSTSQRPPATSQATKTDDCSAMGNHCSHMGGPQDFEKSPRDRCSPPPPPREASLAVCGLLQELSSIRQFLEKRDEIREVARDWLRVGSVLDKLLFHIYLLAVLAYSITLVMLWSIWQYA

[6] = target: T4, Type-1 angiotensin II receptor (Homo sapiens, UniProt P30556)
T4 sequence (P30556 whole entry): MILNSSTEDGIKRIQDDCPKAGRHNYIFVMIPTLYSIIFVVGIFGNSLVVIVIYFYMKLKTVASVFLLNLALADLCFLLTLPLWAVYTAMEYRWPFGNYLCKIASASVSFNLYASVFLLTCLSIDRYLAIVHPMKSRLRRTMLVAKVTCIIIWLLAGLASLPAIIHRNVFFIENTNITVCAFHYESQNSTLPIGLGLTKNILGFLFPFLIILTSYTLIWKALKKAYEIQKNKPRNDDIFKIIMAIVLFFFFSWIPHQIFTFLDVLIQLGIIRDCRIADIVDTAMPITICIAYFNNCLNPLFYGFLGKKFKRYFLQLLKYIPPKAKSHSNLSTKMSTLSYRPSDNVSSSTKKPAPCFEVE

Adenosine receptor A2a = Adenosine receptor A2a (Homo sapiens, UniProt P29274)
[7] = target: Beta-1 adrenergic receptor (Homo sapiens, UniProt P08588); assay type: functional
Progesterone receptor = target: T5, Progesterone receptor (Homo sapiens, UniProt P06401); assay type: functional
T5 sequence (P06401 whole entry): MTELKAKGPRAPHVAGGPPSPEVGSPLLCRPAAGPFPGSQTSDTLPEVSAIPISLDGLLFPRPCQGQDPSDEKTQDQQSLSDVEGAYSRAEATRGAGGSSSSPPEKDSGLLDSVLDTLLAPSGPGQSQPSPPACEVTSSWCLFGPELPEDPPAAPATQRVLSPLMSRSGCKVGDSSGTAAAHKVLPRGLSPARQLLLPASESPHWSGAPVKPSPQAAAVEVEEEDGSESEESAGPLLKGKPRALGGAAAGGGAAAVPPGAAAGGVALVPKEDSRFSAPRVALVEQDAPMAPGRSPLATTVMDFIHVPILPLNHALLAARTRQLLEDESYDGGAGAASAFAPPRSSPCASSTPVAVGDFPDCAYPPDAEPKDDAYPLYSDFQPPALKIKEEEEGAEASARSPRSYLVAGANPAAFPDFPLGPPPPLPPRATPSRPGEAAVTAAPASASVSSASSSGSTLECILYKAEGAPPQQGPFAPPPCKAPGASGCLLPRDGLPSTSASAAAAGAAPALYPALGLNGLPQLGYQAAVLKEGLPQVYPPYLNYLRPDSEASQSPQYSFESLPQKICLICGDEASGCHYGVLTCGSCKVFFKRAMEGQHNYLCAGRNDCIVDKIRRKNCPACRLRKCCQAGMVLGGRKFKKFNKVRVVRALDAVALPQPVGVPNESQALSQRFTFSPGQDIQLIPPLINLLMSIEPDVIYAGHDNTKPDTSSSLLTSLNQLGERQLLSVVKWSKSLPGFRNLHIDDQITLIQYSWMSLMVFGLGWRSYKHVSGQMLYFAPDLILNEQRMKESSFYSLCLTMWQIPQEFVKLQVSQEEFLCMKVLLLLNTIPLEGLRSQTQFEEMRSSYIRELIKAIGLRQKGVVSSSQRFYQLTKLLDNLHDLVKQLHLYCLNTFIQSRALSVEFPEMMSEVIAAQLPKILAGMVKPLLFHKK
Further: assay procedure not described here.

Kappa-type opioid receptor, sequence (P41145 whole entry): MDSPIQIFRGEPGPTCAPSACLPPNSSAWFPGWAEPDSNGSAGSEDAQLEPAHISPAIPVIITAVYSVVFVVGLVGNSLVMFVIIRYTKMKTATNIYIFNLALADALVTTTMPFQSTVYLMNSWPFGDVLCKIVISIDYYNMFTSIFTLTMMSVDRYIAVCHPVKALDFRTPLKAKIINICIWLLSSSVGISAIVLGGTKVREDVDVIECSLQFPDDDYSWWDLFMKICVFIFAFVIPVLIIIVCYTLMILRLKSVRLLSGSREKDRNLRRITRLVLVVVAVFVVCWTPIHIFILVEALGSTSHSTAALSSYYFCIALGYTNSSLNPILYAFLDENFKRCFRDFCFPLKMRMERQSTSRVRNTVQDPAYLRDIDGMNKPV
Beta-1 adrenergic receptor, sequence (P08588 whole entry): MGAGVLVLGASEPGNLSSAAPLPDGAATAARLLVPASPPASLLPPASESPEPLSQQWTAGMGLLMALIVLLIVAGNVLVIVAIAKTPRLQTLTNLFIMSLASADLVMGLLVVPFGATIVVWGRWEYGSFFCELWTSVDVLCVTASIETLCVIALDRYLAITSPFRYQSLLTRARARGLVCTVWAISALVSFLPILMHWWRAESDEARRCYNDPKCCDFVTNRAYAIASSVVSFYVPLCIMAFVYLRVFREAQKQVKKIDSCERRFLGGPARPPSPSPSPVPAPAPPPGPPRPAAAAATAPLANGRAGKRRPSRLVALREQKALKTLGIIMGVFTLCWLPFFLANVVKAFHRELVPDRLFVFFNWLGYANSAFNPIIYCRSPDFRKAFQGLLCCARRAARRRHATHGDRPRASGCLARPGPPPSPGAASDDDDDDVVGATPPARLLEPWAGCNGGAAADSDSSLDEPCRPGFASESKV
Gamma-aminobutyric acid receptor subunit alpha-1, sequence (P62813 whole entry): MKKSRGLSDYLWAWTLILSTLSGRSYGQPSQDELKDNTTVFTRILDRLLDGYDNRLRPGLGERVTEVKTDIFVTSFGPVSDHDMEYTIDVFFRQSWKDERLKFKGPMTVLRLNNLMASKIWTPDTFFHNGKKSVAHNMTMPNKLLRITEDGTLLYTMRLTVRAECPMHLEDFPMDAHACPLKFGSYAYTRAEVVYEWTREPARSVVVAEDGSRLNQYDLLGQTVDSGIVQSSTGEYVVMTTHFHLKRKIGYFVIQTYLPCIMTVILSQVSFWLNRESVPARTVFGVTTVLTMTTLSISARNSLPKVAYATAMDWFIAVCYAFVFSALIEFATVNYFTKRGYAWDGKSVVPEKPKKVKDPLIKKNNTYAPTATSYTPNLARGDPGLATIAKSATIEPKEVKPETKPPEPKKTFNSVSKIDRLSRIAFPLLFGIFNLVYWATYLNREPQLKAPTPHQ
D(3) dopamine receptor, sequence (P35462 whole entry): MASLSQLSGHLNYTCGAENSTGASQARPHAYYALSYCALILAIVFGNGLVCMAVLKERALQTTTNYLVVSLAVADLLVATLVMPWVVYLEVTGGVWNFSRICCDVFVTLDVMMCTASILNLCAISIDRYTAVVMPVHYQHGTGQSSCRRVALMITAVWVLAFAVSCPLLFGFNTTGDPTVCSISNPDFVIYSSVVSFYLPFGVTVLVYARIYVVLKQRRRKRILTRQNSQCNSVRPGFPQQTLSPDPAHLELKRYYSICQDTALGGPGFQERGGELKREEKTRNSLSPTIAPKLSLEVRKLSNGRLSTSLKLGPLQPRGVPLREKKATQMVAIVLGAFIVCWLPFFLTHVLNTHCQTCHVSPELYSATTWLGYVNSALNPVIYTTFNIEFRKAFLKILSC
Adenosine receptor A2a, sequence (P29274 whole entry): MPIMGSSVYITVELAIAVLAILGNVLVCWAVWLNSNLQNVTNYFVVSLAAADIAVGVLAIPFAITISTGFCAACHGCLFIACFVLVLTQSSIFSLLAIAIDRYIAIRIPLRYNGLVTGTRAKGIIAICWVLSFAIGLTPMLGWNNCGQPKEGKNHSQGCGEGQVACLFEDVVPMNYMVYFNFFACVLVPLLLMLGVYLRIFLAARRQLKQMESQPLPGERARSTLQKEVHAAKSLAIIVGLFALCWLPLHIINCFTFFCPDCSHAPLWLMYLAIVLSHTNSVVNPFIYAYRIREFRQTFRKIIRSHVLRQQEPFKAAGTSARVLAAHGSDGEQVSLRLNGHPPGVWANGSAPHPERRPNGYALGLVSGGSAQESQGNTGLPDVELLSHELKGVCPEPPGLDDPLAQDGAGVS

Row | AC50 (D(3) dopamine receptor) [µM] | AC50 [1] [µM] | AC50 [2] [µM] | AC50 [3] [µM] | AC50 [4] [µM] | AC50 [5] [µM] | AC50 [6] [µM] | AC50 (Adenosine receptor A2a) [µM] | AC50 [7] [µM] | AC50 (Progesterone receptor) [µM] | Compound
1 | > 30 | > 10 | > 10 | > 10 | > 10 | > 30 | > 10 | > 10 | > 10 | > 10 | NC(=O)NC(=O)Cc1ccccc1 [PHENACEMIDE]
2 | > 30 | > 30 | > 30 | > 30 | > 30 | > 30 | > 30 | > 30 | > 30 | > 30 | OC[C@H]1O[C@@H](Oc2cc(O)cc(/C=C/c3ccc(O)cc3)c2)[C@H](O)[C@@H](O)[C@@H]1O [PICEID]
3 | > 30 | > 30 | > 30 | > 30 | > 30 | > 30 | > 30 | > 30 | > 30 | > 30 | O=C1CC[C@@H](C(=O)N2CSC[C@H]2C(=O)O)N1 [PIDOTIMOD] ([pGlu]-[Thz]-OH)
4 | > 30 | > 30 | > 30 | > 30 | > 30 | > 30 | > 30 | > 30 | > 30 | > 30 | COc1cc(C(=O)OCc2cccc(COC(=O)c3cc(OC)c(OC)c(OC)c3)n2)cc(OC)c1OC [PIROZADIL]
5 | > 30 | > 10 | > 10 | > 10 | > 10 | > 30 | > 10 | > 10 | > 10 | > 10 | CCCN(CCC)S(=O)(=O)c1ccc(C(=O)O)cc1 [PROBENECID]
6 | > 30 | > 30 | > 30 | > 30 | > 30 | > 30 | > 30 | > 30 | 17 | > 30 | CCC(NC(C)C)C(O)c1ccc(O)c2[nH]c(=O)ccc12 (stereo not given) [PROCATEROL]
7 | > 30 | 18 | > 10 | > 30 | > 30 | > 30 | > 10 | > 10 | > 10 | > 10 | CCc1nc(N)nc(N)c1-c1ccc(Cl)cc1 [PYRIMETHAMINE]
8 | > 30 | > 30 | > 30 | > 30 | > 30 | > 30 | 1.2 | > 30 | > 30 | > 30 | C=CC[N+]1([C@H]2C[C@H]3[C@@H]4CC[C@H]5C[C@H](O)[C@@H](N6CCOCC6)C[C@]5(C)[C@H]4CC[C@]3(C)[C@H]2OC(C)=O)CCCC1 [ROCURONIUM]
9 | > 30 | > 30 | > 30 | > 30 | > 30 | > 30 | > 30 | > 30 | > 30 | > 30 | CCCN1CCCC[C@H]1C(=O)Nc1c(C)cccc1C [ROPIVACAINE]
10 | > 30 | > 10 | > 10 | > 10 | > 10 | > 30 | > 10 | > 10 | > 10 | > 10 | Cc1cc(C)nc(NS(=O)(=O)c2ccc(N)cc2)n1 [SULFAMETHAZINE]
11 | 0.48 | > 30 | > 30 | 17 | > 30 | > 30 | > 30 | > 30 | > 30 | > 30 | C=CCN1CCc2nc(N)sc2CC1 [TALIPEXOLE]
12 | > 30 | > 30 | > 30 | > 30 | > 30 | > 30 | > 30 | > 30 | > 30 | > 30 | Cn1c(=O)c2c(ncn2CCOC(=O)C(C)(C)Oc2ccc(Cl)cc2)n(C)c1=O [THEOFIBRATE]
13 | > 30 | > 30 | > 30 | 16 | > 30 | > 30 | > 30 | > 30 | > 30 | > 30 | COc1cc(C(=O)NC2CCCNC2)cc(OC)c1OC (stereo not given) [TROXIPIDE]
14 | > 30 | > 10 | > 10 | > 10 | > 10 | > 30 | > 10 | > 10 | > 10 | > 30 | CC(c1cc2ccccc2s1)N(O)C(N)=O (stereo not given) [ZILEUTON]
